Measurements reported in article PMC8698657, “Absorption and Transport Characteristics and Mechanisms of Carnosic Acid” (Biology, 2021).
Where “and” joins values, the source holds several entries; their conditions need not be identical. Equal values may be shown once. Read-outs that look alike come from different tables or passages of the source.

What was measured:
Caco-2 cell monolayer = experiment: Effect of verapamil, PEG 400 and EDTA on trans-enterocyte transport of CA; format: in vitro ADME, human
Procedure: (§1) CA was dissolved in HBSS solution at 50, 75, and 100 μM. The HBSS solution containing CA combined with 0.5% Tween 80, 5 mmol/L EDTA or 5% PEG 400 was prepared. The cumulative migration (Qr), apparent permeability coefficient (Papp), and the Papp value of bi-direction transport of CA were calculated according to formulas.
(§2) The 0.5 mL HBSS solution containing CA (50, 75, and 100 μM) combined with 100 μmoL/L verapamil, 5% PEG 400, or 5 mmol/L EDTA was added to the AP side of the Transwell plate, and 1.5 mL HBSS solution was added to the BL side. The effect of verapamil, Tween 80, PEG 400, and EDTA on the trans-enterocyte of CA was investigated according to the method described above. The TEER value of each Transwell chamber was measured.
(§3) The cryopreserved Transwell samples were transferred to a 15 mL centrifuge tube, and any remaining liquid was fully washed using 1 mL of 50% methanol solution which was also transferred to the 15 mL centrifuge tube. The mixture was vortexed for 1 min, and 6 mL of ethyl acetate solution was added to the tube and vortexed for another 2 min. The mixture was centrifuged at 6000 rpm/min at 4 °C for 10 min. The supernatant was dried under vacuum, dissolved in 5% phosphoric acid methanol solution, and filtered through a 0.22 μm microporous membrane. The concentration of CA was determined by HPLC as described above.

[1] = as above; format: in vitro ADME, human; details: human, read-out: Papp AP to BL; for Papp A→B at 50 μM / Papp A→B at 75 μM / Papp A→B at 100 μM: Average of 0.5-3.0 h
Procedure: as §1, §2, §3

[2] = Tissue distribution of CA in mice by HPLC after oral gavage; format: in vivo; details: 50 mg/kg/daily oral gavage 7 days, 4 h after last gavage
Description: The animal experiment protocol was approved by the Institutional Animal Care and Use Committee of Guangzhou Medical University (#GY2020-067, 30 July 2020). Male ICR mice aged 5–6 weeks were kept in a specific-pathogen-free environment with 12-h light/dark cycles. […] Both groups were allowed to eat and drink ad libitum. Four hours after the last gavage, the mice were anesthetized, and their eyeballs were removed for blood collection. They were sacrificed and immediately dissected in the supine position. Serum, major organs (heart, liver, lung, stomach, spleen, kidney, small intestine, cecum, and colon), and the contents of the stomach, small intestine, cecum, and colon were collected, weighed, and stored at −80 °C.
Tissue samples and the contents of the digestive tract were homogenized in ultrapure water at 55 Hz for 8 min. Tissue/content homogenate (1 mL) or serum (100 μL) was mixed with 1 mL of 50% methanol, and the mixture was vortexed for 2 min. The mixture was extracted with ethyl acetate three times (6, 3, and 3 mL of ethyl acetate) and vortexed again for 2 min. The sample was centrifuged at 5000 rpm/min at 4 °C for 15 min, and the upper organic phase was dried under vacuum. Then, it was dissolved in 5% phosphoric acid methanol solution and filtered through a 0.22 μm microporous membrane. Concentrations of CA in serum, tissue, and content samples were determined using HPLC. CA standard was added to all samples, and the recovery rate was calculated. The chromatographic conditions for HPLC analysis were as follows: C18 chromatographic column: 5 μm, 150 × 4.6 mm; column temperature: 25 °C; mobile phase: methanol/0.1% phosphoric acid solution at 85%/15%; flow rate: 1.0 mL/min; detection wavelength: 230 nm; injection volume: 10 μL.

[3] = cited from earlier work
[4] = Caco-2, CA 50 μM, + 5 mmoL/L EDTA
[5] = Caco-2, CA 75 μM, + 5 mmoL/L EDTA
[6] = Caco-2, CA 100 μM, + 5% PEG 400
[7] = Caco-2, CA 100 μM, + 5 mmoL/L EDTA
[8] = Caco-2, with verapamil 100 μmol/L, CA 50 μM, + 100 μmoL/L verapamil
[9] = Caco-2, with verapamil 100 μmol/L, CA 75 μM, + 100 μmoL/L verapamil
[10] = Caco-2, with verapamil 100 μmol/L, CA 100 μM, + 100 μmoL/L verapamil
[11] = Caco-2, with verapamil 100 μmoL/L, CA 75 μM, + 100 μmoL/L verapamil

SMILES: CC(C)c1cc2c(c(O)c1O)[C@@]1(C(=O)O)CCCC(C)(C)[C@@H]1CC2 [CA, Carnosic acid]
- increase of Papp (AP to BL) in the presence of EDTA vs control (Caco-2 cell monolayer; 5 mmol/L EDTA): ~ 1.5 fold
- active efflux / P-gp substrate status (Caco-2 cell monolayer; from effect of verapamil and PEG 400 on Papp (AP to BL)): could be a substrate of P-gp
- Papp A→B at 0.5 h, 50 μM ([1]; Caco-2, CA 50 μM, + 5% PEG 400): 3.76 ± 0.17 ×10⁻⁶ cm/s
- Papp A→B at 0.5 h, 50 μM [1, 4]: 0.5 ± 0.01 ×10⁻⁶ cm/s
- Papp A→B at 1 h, 50 μM ([1]; Caco-2, CA 50 μM, + 5% PEG 400): 3.96 ± 0.1 ×10⁻⁶ cm/s
- Papp A→B at 1 h, 50 μM [1, 4]: 0.24 ± 0.08 ×10⁻⁶ cm/s
- Papp A→B at 1.5 h, 50 μM ([1]; Caco-2, CA 50 μM, + 5% PEG 400): 2.35 ± 0.01 ×10⁻⁶ cm/s
- Papp A→B at 1.5 h, 50 μM [1, 4]: 0.62 ± 0.02 ×10⁻⁶ cm/s
- Papp A→B at 2 h, 50 μM ([1]; Caco-2, CA 50 μM, + 5% PEG 400): 1.86 ± 0.35 ×10⁻⁶ cm/s
- Papp A→B at 2 h, 50 μM [1, 4]: 0.92 ×10⁻⁶ cm/s
- Papp A→B at 2.5 h, 50 μM ([1]; Caco-2, CA 50 μM, + 5% PEG 400): 1.89 ± 0.04 ×10⁻⁶ cm/s
- Papp A→B at 2.5 h, 50 μM [1, 4]: 0.95 ± 0.02 ×10⁻⁶ cm/s
- Papp A→B at 3 h, 50 μM ([1]; Caco-2, CA 50 μM, + 5% PEG 400): 2.34 ± 0.01 ×10⁻⁶ cm/s
- Papp A→B at 3 h, 50 μM [1, 4]: 1.49 ± 0.02 ×10⁻⁶ cm/s
- Papp A→B at 50 μM ([1]; Caco-2, CA 50 μM, + 5% PEG 400): 2.69 ± 0.04 ×10⁻⁶ cm/s
- Papp A→B at 50 μM [1, 4]: 0.79 ± 0.03 ×10⁻⁶ cm/s
- Papp A→B at 0.5 h, 75 μM ([1]; Caco-2, CA 75 μM, + 5% PEG 400): 3.9 ± 0.1 ×10⁻⁶ cm/s
- Papp A→B at 0.5 h, 75 μM [1, 5]: 0.92 ± 0.08 ×10⁻⁶ cm/s
- Papp A→B at 1 h, 75 μM ([1]; Caco-2, CA 75 μM, + 5% PEG 400): 2.99 ± 0.09 ×10⁻⁶ cm/s
- Papp A→B at 1 h, 75 μM [1, 5]: 1.9 ± 0.08 ×10⁻⁶ cm/s
- Papp A→B at 1.5 h, 75 μM ([1]; Caco-2, CA 75 μM, + 5% PEG 400): 2.72 ± 0.46 ×10⁻⁶ cm/s
- Papp A→B at 1.5 h, 75 μM [1, 5]: 1.94 ± 0.07 ×10⁻⁶ cm/s
- Papp A→B at 2 h, 75 μM ([1]; Caco-2, CA 75 μM, + 5% PEG 400): 2.35 ± 0.1 ×10⁻⁶ cm/s
- Papp A→B at 2 h, 75 μM [1, 5]: 2.08 ± 0.03 ×10⁻⁶ cm/s
- Papp A→B at 2.5 h, 75 μM ([1]; Caco-2, CA 75 μM, + 5% PEG 400): 1.52 ± 0.06 ×10⁻⁶ cm/s
- Papp A→B at 2.5 h, 75 μM [1, 5]: 1.28 ± 0.1 ×10⁻⁶ cm/s
- Papp A→B at 3 h, 75 μM ([1]; Caco-2, CA 75 μM, + 5% PEG 400): 1.19 ± 0.06 ×10⁻⁶ cm/s
- Papp A→B at 3 h, 75 μM [1, 5]: 0.57 ± 0.01 ×10⁻⁶ cm/s
- Papp A→B at 75 μM ([1]; Caco-2, CA 75 μM, + 5% PEG 400): 1.45 ± 0.08 ×10⁻⁶ cm/s
- Papp A→B at 75 μM [1, 5]: 1.45 ± 0.05 ×10⁻⁶ cm/s
- Papp A→B at 0.5 h, 100 μM [1, 6]: 3.21 ± 0.47 ×10⁻⁶ cm/s
- Papp A→B at 0.5 h, 100 μM [1, 7]: 0.38 ×10⁻⁶ cm/s
- Papp A→B at 1 h, 100 μM [1, 6]: 3.59 ± 0.1 ×10⁻⁶ cm/s
- Papp A→B at 1 h, 100 μM [1, 7]: 2.25 ± 0.09 ×10⁻⁶ cm/s
- Papp A→B at 1.5 h, 100 μM [1, 6]: 2.89 ± 0.05 ×10⁻⁶ cm/s
- Papp A→B at 1.5 h, 100 μM [1, 7]: 1.96 ± 0.07 ×10⁻⁶ cm/s
- Papp A→B at 2 h, 100 μM [1, 6]: 2.25 ± 0.02 ×10⁻⁶ cm/s
- Papp A→B at 2 h, 100 μM [1, 7]: 3.01 ± 0.03 ×10⁻⁶ cm/s
- Papp A→B at 2.5 h, 100 μM [1, 6]: 2.44 ± 0.01 ×10⁻⁶ cm/s
- Papp A→B at 2.5 h, 100 μM [1, 7]: 1.82 ± 0.08 ×10⁻⁶ cm/s
- Papp A→B at 3 h, 100 μM [1, 6]: 2.14 ± 0.02 ×10⁻⁶ cm/s
- Papp A→B at 3 h, 100 μM [1, 7]: 1.56 ± 0.07 ×10⁻⁶ cm/s
- Papp A→B at 100 μM [1, 6]: 2.76 ± 0.07 ×10⁻⁶ cm/s
- Papp A→B at 100 μM [1, 7]: 1.83 ± 0.05 ×10⁻⁶ cm/s
- Papp A→B at 0.5 h, 50 μM [1, 8]: 1.98 ± 0.06 ×10⁻⁶ cm/s
- Papp A→B at 1 h, 50 μM [1, 8]: 1.89 ± 0.09 ×10⁻⁶ cm/s
- Papp A→B at 1.5 h, 50 μM [1, 8]: 1.84 ± 0.06 ×10⁻⁶ cm/s
- Papp A→B at 2 h, 50 μM [1, 8]: 2.08 ± 0.1 ×10⁻⁶ cm/s
- Papp A→B at 2.5 h, 50 μM [1, 8]: 0.95 ± 0.03 ×10⁻⁶ cm/s
- Papp A→B at 3 h, 50 μM [1, 8]: 1.37 ± 0.09 ×10⁻⁶ cm/s
- Papp A→B at 3 h, 75 μM [1, 9]: 0.69 ± 0.01 ×10⁻⁶ cm/s
- Papp A→B at 75 μM [1, 9]: 1.53 ± 0.04 ×10⁻⁶ cm/s
- Papp A→B at 0.5 h, 100 μM [1, 10]: 1.26 ± 0.02 ×10⁻⁶ cm/s
- Papp A→B at 1 h, 100 μM [1, 10]: 1.7 ± 0.01 ×10⁻⁶ cm/s
- Papp A→B at 1.5 h, 100 μM [1, 10]: 2.99 ± 0.03 ×10⁻⁶ cm/s
- Papp A→B at 2 h, 100 μM [1, 10]: 1.24 ± 0.02 ×10⁻⁶ cm/s
- Papp A→B at 2.5 h, 100 μM [1, 10]: 0.95 ± 0.05 ×10⁻⁶ cm/s
- Papp A→B at 3 h, 100 μM [1, 10]: 1.09 ± 0.02 ×10⁻⁶ cm/s
- Papp A→B at 100 μM [1, 10]: 1.53 ± 0.07 ×10⁻⁶ cm/s
- Papp A→B at 50 μM ([1]; Caco-2, with verapamil 100 μmoL/L, CA 50 μM, + 100 μmoL/L verapamil): 1.5 ± 0.02 ×10⁻⁶ cm/s
- Papp A→B at 0.5 h, 75 μM [1, 11]: 1.12 ± 0.01 ×10⁻⁶ cm/s
- Papp A→B at 1 h, 75 μM [1, 11]: 1.32 ± 0.01 ×10⁻⁶ cm/s
- Papp A→B at 1.5 h, 75 μM [1, 11]: 0.85 ± 0.03 ×10⁻⁶ cm/s
- Papp A→B at 2 h, 75 μM [1, 11]: 1.94 ± 0.06 ×10⁻⁶ cm/s
- Papp A→B at 2.5 h, 75 μM [1, 11]: 0.87 ± 0.1 ×10⁻⁶ cm/s
- Concentration of CA in Cecal content [2]: 0.15 nmol/g or mL and 0.15 ± 0.00 nmol/g or mL
- Concentration of CA in Cecum [2]: 2965.1 nmol/g or mL and 2965.10 ± 3.31 nmol/g or mL
- Concentration of CA in Colon [2]: 179.4 nmol/g or mL and 179.43 ± 0.26 nmol/g or mL
- Concentration of CA in Colonic content [2]: 74.54 nmol/g or mL and 74.54 ± 0.21 nmol/g or mL
- Concentration of CA in Gastric content [2]: 1.08 nmol/g or mL and 1.08 ± 0.00 nmol/g or mL
- Concentration of CA in Heart [2]: 0.75 ± 0.00 nmol/g or mL
- Concentration of CA in Kidney [2]: 0.66 ± 0.02 nmol/g or mL
- Concentration of CA in Liver [2]: 10.56 ± 0.01 nmol/g or mL
- Concentration of CA in Lung [2]: 1.68 ± 0.00 nmol/g or mL
- Concentration of CA in Serum [2]: 15.22 ± 0.02 nmol/g or mL
- Concentration of CA in Small intestine [2]: 1.87 nmol/g or mL and 1.87 ± 0.00 nmol/g or mL
- Concentration of CA in Small intestine content [2]: 13.93 nmol/g or mL and 13.93 ± 0.01 nmol/g or mL
- Concentration of CA in Spleen [2]: 13.42 ± 0.01 nmol/g or mL
- Concentration of CA in Stomach [2]: 35.98 ± 0.09 nmol/g or mL
- concentration at 4 h ([2]; male, ICR, mouse, serum, read-out: CA detected in serum): 15.2 µM
- toxicity of orally administered CA ([3]; 64.3 and 90 mg/kg oral): nontoxic
- circulating concentration ([3]; rats, 4 h after oral gavage): 0.39 µg/mL
- main elimination route ([3]; rats, oral 64.3 ± 5.8 mg/kg): fecal excretion
- overall bioavailability ([3]; rats, oral): 40–65%
